# Data published in publication PMC8289695 (Cell Reports, 2021).
# Where two headings read alike, the source gives them in different places.
# Columns and labels:
# [1] = system: SARS-CoV-2; test: microbe, parasite or virus in culture; assay type: cell-based, strain USA_WA1/2020
# [2] = system: SARS-CoV-2; assay type: cell-based, strain USA_WA1/2020; conditions: VPS34-IN1 5 μM, orlistat 500 μM, triacsin C 5 μM, TOFA 50 μM, 2-bromopalmitate 50 μM, A922500 30 μM, remdesivir 1 μM
# [3] = system: SARS-CoV-2; assay type: cell-based, strain USA_WA1/2020
# [4] = system: SARS-CoV-2; test: microbe, parasite or virus in culture; assay type: cell-based, strain USA_WA1/2020; conditions: Severe acute respiratory syndrome coronavirus 2, Calu-3, read-out: IC50, infectious virus production (plaque assay)
# [5] = system: Vero E6 cells; conditions: concentrations below 16.67 μM of 10-point dose response
# [6] = system: SARS-CoV-2; assay type: cell-based, strain USA_WA1/2020; remark: listed apart in the source
# [7] = molecular target: VPS34 (Homo sapiens, UniProt Q8NEB9); assay type: cell-based; conditions: Huh7 cells, 24 h treatment; VPS34-IN1 2 μM, PIK-III 5 μM, SAR405 5 μM, Compound 19 5 μM, Orlistat 200 μM
# [8] = read-out: IC50, infectious virus production (focus forming assay)
# Sequence of VPS34 (Q8NEB9 whole entry): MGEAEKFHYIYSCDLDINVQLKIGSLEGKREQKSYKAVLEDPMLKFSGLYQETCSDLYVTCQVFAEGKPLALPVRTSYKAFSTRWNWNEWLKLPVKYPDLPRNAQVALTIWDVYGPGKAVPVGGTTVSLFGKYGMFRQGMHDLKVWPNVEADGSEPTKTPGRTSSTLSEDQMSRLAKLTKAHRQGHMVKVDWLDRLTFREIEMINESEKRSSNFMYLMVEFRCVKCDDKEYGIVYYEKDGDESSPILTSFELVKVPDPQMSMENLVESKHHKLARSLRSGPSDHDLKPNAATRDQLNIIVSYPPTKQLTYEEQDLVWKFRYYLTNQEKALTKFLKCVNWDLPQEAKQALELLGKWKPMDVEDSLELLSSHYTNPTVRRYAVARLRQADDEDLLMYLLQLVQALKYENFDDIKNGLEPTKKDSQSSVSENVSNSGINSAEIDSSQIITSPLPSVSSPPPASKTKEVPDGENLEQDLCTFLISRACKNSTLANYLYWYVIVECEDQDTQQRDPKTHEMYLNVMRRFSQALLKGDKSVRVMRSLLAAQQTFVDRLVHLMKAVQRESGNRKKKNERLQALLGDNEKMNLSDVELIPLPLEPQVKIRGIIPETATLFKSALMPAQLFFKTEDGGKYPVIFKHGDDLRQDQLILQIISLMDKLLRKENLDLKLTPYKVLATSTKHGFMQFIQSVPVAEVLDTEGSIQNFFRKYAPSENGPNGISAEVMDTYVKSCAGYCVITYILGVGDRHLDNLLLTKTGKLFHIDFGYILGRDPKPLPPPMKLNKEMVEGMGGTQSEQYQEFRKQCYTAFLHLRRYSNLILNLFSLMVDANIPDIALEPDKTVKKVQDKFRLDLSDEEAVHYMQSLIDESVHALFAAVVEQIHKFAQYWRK
Compound,"IC50 [1, 8] [µM]",dsRNA and SARS-CoV-2 N distribution (replication centers) [2],viral RNA levels [3],IC50 [4] [µM],other results
CCCCCCCCCCCCCCC(Br)C(=O)O (stereo not shown) [2-bromopalmitate],23,fewer but larger foci positive for both markers,reduced RNA levels at both MOI 0.01 and 1,–,concentrations at which infectious virus production was inhibited [1]: greater than 10 μM
O=C(Nc1ccccc1)Nc1ccc(-c2ccc(C(=O)[C@@H]3CCC[C@H]3C(=O)O)cc2)cc1 [A922500],4.02,loss of these distinct puncta and dispersion of dsRNA and SARS-CoV-2 N,–,–,–
C=C1C(=O)OC(CCCCCCCC)C1C(=O)O (stereo not shown) [C75],22.8,–,–,–,–
Nc1ncc(-c2ccnc(Nc3ccncc3)n2)c(CC2CC2)n1 [PIK-III],–,–,–,0.12,toxicity at the remaining concentrations (resistance 1-20 hpi) [5]: no toxicity was observed
C[C@@H]1COCCN1c1cc(=O)n2c(n1)N(Cc1cncc(Cl)c1)[C@H](C(F)(F)F)CC2 [SAR405],–,–,–,–,"IC50 ([1]; Severe acute respiratory syndrome coronavirus 2, Calu-3, read-out: IC50, infectious virus production (focus forming assay)): 0.376 µM"
CCCCCCCCCCCCCCOc1ccc(C(=O)O)o1 [TOFA],1.34,loss of these distinct puncta and dispersion of dsRNA and SARS-CoV-2 N,–,–,–
CC(C)(O)CNc1ncc(-c2ccnc(Nc3ccnc(Cl)c3)n2)c(CC2CC2)n1 [VPS34-IN1],–,loss of these distinct puncta and dispersion of dsRNA and SARS-CoV-2 N,reduced RNA levels at both MOI 0.01 and 1,0.55,toxicity at the remaining concentrations (resistance 1-20 hpi) [5]: no toxicity was observed
CCOC(=O)[C@@]1(CCCCCCOc2ccc(Cl)cc2)CO1 [etomoxir],–,–,–,–,inhibition of SARS-CoV-2 (focus forming assay) [1]: Neither compound showed any inhibition
CCCCCCCCCCC[C@@H](C[C@@H]1OC(=O)[C@H]1CCCCCC)OC(=O)[C@H](CC(C)C)NC=O [orlistat],–,loss of these distinct puncta and dispersion of dsRNA and SARS-CoV-2 N,reduced RNA levels at both MOI 0.01 and 1,21.2,inhibition of viral cytopathic effects at highest concentration [6]: complete inhibition was not achieved; effect on GFP-2xFYVE localization to endosomes (puncta) [7]: did not affect GFP-2xFYVE localization
CCC(CC)COC(=O)[C@H](C)N[P@](=O)(OC[C@H]1O[C@@](C#N)(c2ccc3c(N)ncnn23)[C@H](O)[C@@H]1O)Oc1ccccc1 [remdesivir],–,distribution of N and dsRNA similar to the DMSO control,–,–,RNA synthesis at earlier time points (4 and 10 hpi) [3]: inhibited RNA synthesis at earlier time points as well
CCC/C=C/C/C=C/C=C/C=N/NN=O [triacsin C],–,fewer but larger foci positive for both markers,reduced RNA levels at both MOI 0.01 and 1,0.04,–
COc1ccc(CN2CCNCC2)c(OC)c1OC [trimetazidine],–,–,–,–,inhibition of SARS-CoV-2 (focus forming assay) [1]: Neither compound showed any inhibition
